Results reported in patent US8697727B2, “N-substituted-heterocycloalkyloxybenzamide compounds and methods of use” (Rigel Pharmaceuticals, Inc., priority 2006, dated 2014).

Tested on: AMPK
Experiment: AMPK activation, enzyme-linked immunosorbent assay
Assay type: cell-based
Summary of the method: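 Each compound's EC50 for AMPK activation was the endpoint. In a cell-based assay, AMPK activity was read out as the relative concentration of phosphorylated acetyl-CoA carboxylase, a product of AMPK, measured by enzyme-linked immunosorbent assay. Values fell into the ranges less than 1 μM, 1-10 μM, 10-20 μM, 20-50 μM, 50-100 μM, and >100 μM.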

Structure (SMILES)	EC50 [µM]
O=C(NC1CCN(Cc2ccc(Cl)cc2)CC1)c1ccc(OC2CCN(Cc3ccc(Cl)cc3)CC2)c(F)c1 [Compound 72, N-(1-(4-chlorobenzyl)piperidin-4-yl)-4-(1-(4-chlorobenzyl)piperidin-4-yloxy)-3-fluorobenzamide]	< 1
O=C(NC1CCN(Cc2ccccc2)CC1)c1ccc(OC2CCN(Cc3ccc(OC(F)(F)F)cc3)CC2)cc1 [Compound 63, N-(1-benzylpiperidin-4-yl)-4-(1-(4-(trifluoromethoxy)benzyl)piperidin-4-yloxy)benzamide]	< 1
O=C(NC1CCN(Cc2ccccc2)CC1)c1ccc(OC2CCN(Cc3ccccc3)CC2)c(Cl)c1 [Compound 14, N-(1-benzylpiperidin-4-yl)-4-(1-benzylpiperidin-4-yloxy)-3-chlorobenzamide]	< 1
O=C(NC1CCN(Cc2ccncc2)CC1)c1ccc(OC2CCN(c3ccc(C(F)(F)F)cc3)CC2)c(F)c1 [Compound 28, 3-fluoro-N-(1-(pyridin-4-ylmethyl)piperidin-4-yl)-4-(1-(4-(trifluoromethyl)phenyl)piperidin-4-yloxy)benzamide]	< 1
COc1cc(C(=O)NC2CCN(Cc3ccccc3)CC2)ccc1OC1CCN(c2ccco2)CC1 [Compound 12, N-(1-benzylpiperidin-4-yl)-3-methoxy-4-(1-(furan-2-yl)piperidin-4-yloxy)benzamide]	1 to 10
N#Cc1ccc(CN2CCC(NC(=O)c3ccc(OC4CCN(c5ccc(C(F)(F)F)cc5)CC4)c(F)c3)CC2)cc1 [Compound 43, N-(1-(4-cyanobenzyl)piperidin-4-yl)-3-fluoro-4-(1-(4-(trifluoromethyl)phenyl)piperidin-4-yloxy)benzamide]	< 1

Other lines, results leading:

EC50 [µM]	Structure (SMILES)
< 1	N#Cc1ccc(N2CCC(Oc3cccc(C(=O)NC4CCN(Cc5ccccc5)CC4)c3)CC2)cc1 [Compound 48, N-(1-benzylpiperidin-4-yl)-3-(1-(4-cyanophenyl)piperidin-4-yloxy)benzamide]
1 to 10	N#Cc1ccc(CN2CCC(Oc3cccc(C(=O)NC4CCN(Cc5ccccc5)CC4)c3)CC2)cc1 [Compound 50, N-(1-benzylpiperidin-4-yl)-3-(1-(4-cyanobenzyl)piperidin-4-yloxy)benzamide]
10 to 20	O=C(c1ccc(OC2CCN(Cc3ccccc3)CC2)cc1)N1CCN(Cc2ccccn2)CC1 [Compound 105, (4-(1-benzylpiperidin-4-yloxy)phenyl)(4-(pyridin-2-ylmethyl)piperazin-1-yl)methanone]
50 to 100	Cn1cncc1CN1CCC(Oc2ccc(C(=O)NC3CCN(Cc4ccccc4)CC3)cc2Cl)CC1 [Compound 5, N-(1-benzylpiperidin-4-yl)-3-chloro-4-(1-((l-methyl-1H-imidazol-5-yl)methyl)piperidin-4-yloxy)benzamide]
< 1	N#Cc1ccc(CN2CCC(Oc3ccc(C(=O)NC4CCN(Cc5ccccc5)CC4)cc3F)CC2)cc1 [Compound 41, N-(1-benzylpiperidin-4-yl)-4-(1-(4-cyanobenzyl)piperidin-4-yloxy)-3-fluorobenzamide]
1 to 10	CC(C)(C)OC(=O)N1CCC(Oc2ccc(C(=O)NC3CCN(Cc4ccccc4)CC3)cc2Cl)CC1 [Compound 90, tert-butyl 4-(4-(1-benzylpiperidin-4-ylcarbamoyl)-2-chlorophenoxy)piperidine-1-carboxylate]
< 1	O=C(NC1CCN(Cc2ccccc2)CC1)c1cc(Cl)c(OC2CCN(Cc3cccc(C(F)(F)F)c3)CC2)c(Cl)c1 [Compound 62, N-(1-benzylpiperidin-4-yl)-3,5-dichloro-4-(1-(3-(trifluoromethyl)benzyl)piperidin-4-yloxy)benzamide]
10 to 20	COc1ccc(CN2CCC(Oc3ccc(C(=O)NCCCN4CCOCC4)cc3Cl)CC2)cc1 [Compound 101, 3-chloro-4-(1-(4-methoxybenzyl)piperidin-4-yloxy)-N-(3-morpholinopropyl)benzamide]
